Source: paper PMC11340245, “Studies of Protein Binding to Biomimetic Membranes Using a Group of Uniform Materials Based on Organic Salts Derived From 8-Anilino-1-naphthalenesulfonic Acid” (Applied Spectroscopy, 2024)

Test: Thermal stability by thermogravimetric analysis (TGA)
Format: physicochemical
Details: heated from 25 to 595 °C, ramp rate 10 °C min^–1
Protocol: The thermal stability of [N4444][ANS] and [P4444][ANS] was investigated using a TA Discovery TGA 550 instrument. GUMBOS were heated from 25 to 595 °C using a ramp rate of 10 °C min^–1. The melting points of these compounds were also determined using a MEL-TEMP apparatus. Membrane partition and competitive binding assays were performed on a BioTek Cytation 3 imaging reader.
Thermal behaviors of [N4444][ANS] and [P4444][ANS] GUMBOS were further investigated using TGA. Figure S14 and Table S2 (Supplemental Material) present the weight loss curves and temperatures at which GUMBOS weight was reduced by 50% (T50%), respectively.

Compound | T50% (half weight loss temperature)
CCCC[N+](CCCC)(CCCC)CCCC.O=S(=O)([O-])c1cccc2cccc(Nc3ccccc3)c12 [[N4444][ANS]] | 308 ºC
CCCC[P+](CCCC)(CCCC)CCCC.O=S(=O)([O-])c1cccc2cccc(Nc3ccccc3)c12 [[P4444][ANS]] | 422 ºC
